From patent publication EP4722207A1, “OXOISOINDOLINYL-SUBSTITUTED TETRAHYDROPYRIMIDINEDIONE DERIVATIVE AND USE THEREOF” (Gluetacs Therapeutics (Shanghai) Co., Ltd., priority 2023, dated 2024)

Experiments:
[1] = system: MV-4-11; test: Cell viability assay (CellTiter-Meiluncell Luminescent), tumor cell proliferation, MV-4-11; conditions: Homo sapiens, MV4-11, 96 h
[2] = system: MM.1S; test: Cell viability assay (CellTiter-Meiluncell Luminescent), tumor cell proliferation, MM.1S; conditions: Homo sapiens, MM1.S, 96 h; for inhibition at 0.01 µM: read-out: Inhibition Rate at 10 nM (%); for inhibition at 0.5 µM: read-out: Inhibition Rate at 500 nM (%); for IC50: read-out: inhibitory activity (IC50, nM) against tumor cells proliferation, MM.1S
Experimental: The tumor cells used herein were cultured in a cell culture medium listed in table 2 at 37°C in an incubator with 5% CO2. Prior to experimentation, all cell lines used were correctly identified by STR profiling, and tested negative for mycoplasma contamination using a mycoplasma detection kit through routine screenings.
On the following day, the test compounds of the present disclosure were subjected to serial dilution. […] Subsequently, 0.5 µL of the test compound dilution was transferred into the 96-well plate containing the cells, with each well containing 100 µL of cell culture medium. […] Into the 96-well plate, the diluted test compounds and corresponding detection reagents were added, resulting in final test compound concentrations of 500 nM and 10 nM, respectively. The experimental procedure is described below using the diluted 2 µM test compound as an example.
After the cells were treated with the compounds of the present disclosure for a specified period, the cell viability assay reagent was added to the culture medium according to the kit's instructions to determine cell viability. […] All controls were treated using the same procedure as the compounds of the present disclosure. The growth inhibition curves for the compounds of the present disclosure were plotted using Prism GraphPad software, and the IC50 values were calculated therefrom.

[3] = biological target: T1, IKZF2 (Homo sapiens, UniProt Q96SW2+Q9UKS7); test: Western-blot assay, substrate protein degradation in hPBMCs: IKZF2; format: cell-based; conditions: for substrate protein remaining % IKZF2: 24 hours of compound treatment, 50 nM and 500 nM; for IKZF2 substrate protein remaining %: compounds at 50 nM and 500 nM, 24 hours
T1 construct: effects of the compounds of the present disclosure on the expression of target proteins in cells; endogenous in cells; host or cells: human PBMCs (hPBMCs)

[4] = biological target: T2, WEE1 (Homo sapiens, UniProt P30291+Q96SW2); test: Western-blot assay, substrate protein degradation in hPBMCs: WEE1; format: cell-based; conditions: for substrate protein remaining % WEE1: 24 hours of compound treatment, 50 nM and 500 nM; for WEE1 substrate protein remaining %: compounds at 50 nM and 500 nM, 24 hours
T2 construct: effects of the compounds of the present disclosure on the expression of target proteins in cells; endogenous in cells; host or cells: human PBMCs (hPBMCs)

[5] = biological target: T3, CK1α (Homo sapiens, UniProt P48729+Q96SW2); test: Western-blot assay, substrate protein degradation in hPBMCs: CK1α; format: cell-based; conditions: for substrate protein remaining % CK1α: 24 hours of compound treatment, 50 nM and 500 nM; for CK1α substrate protein remaining %: compounds at 50 nM and 500 nM, 24 hours
T3 construct: effects of the compounds of the present disclosure on the expression of target proteins in cells; endogenous in cells; host or cells: human PBMCs (hPBMCs)

[6] = biological target: T4, IKZF3 (Homo sapiens, UniProt Q96SW2+Q9UKT9); test: Western-blot assay, substrate protein degradation in hPBMCs: IKZF3; format: cell-based; conditions: for substrate protein remaining % IKZF3: 24 hours of compound treatment, 50 nM and 500 nM; for IKZF3 substrate protein remaining %: compounds at 50 nM and 500 nM, 24 hours
T4 construct: effects of the compounds of the present disclosure on the expression of target proteins in cells; endogenous in cells; host or cells: human PBMCs (hPBMCs)

[7] = system: H292; test: Cell viability assay (CellTiter-Meiluncell Luminescent), tumor cell proliferation, H292; conditions: Homo sapiens, NCI-H292, 96 h; for inhibition at 0.01 µM: read-out: Inhibition Rate at 10 nM (%); for inhibition at 0.5 µM: read-out: Inhibition Rate at 500 nM (%)
[8] = biological target: T5, GSPT1 (Homo sapiens, UniProt P15170+Q96SW2); test: Western-blot assay, substrate protein degradation in hPBMCs: GSPT1; format: cell-based; conditions: for substrate protein remaining % GSPT1: 24 hours of compound treatment, 50 nM and 500 nM; for GSPT1 substrate protein remaining %: compounds at 50 nM and 500 nM, 24 hours
T5 construct: effects of the compounds of the present disclosure on the expression of target proteins in cells; endogenous in cells; host or cells: human PBMCs (hPBMCs)

[9] = biological target: T6, IKZF1 (Homo sapiens, UniProt Q13422+Q96SW2); test: Western-blot assay, substrate protein degradation in hPBMCs: IKZF1; format: cell-based; conditions: for substrate protein remaining % IKZF1: 24 hours of compound treatment, 50 nM and 500 nM; for IKZF1 substrate protein remaining %: compounds at 50 nM and 500 nM, 24 hours
T6 construct: effects of the compounds of the present disclosure on the expression of target proteins in cells; endogenous in cells; host or cells: human PBMCs (hPBMCs)
T6 sequence (Q13422 whole entry): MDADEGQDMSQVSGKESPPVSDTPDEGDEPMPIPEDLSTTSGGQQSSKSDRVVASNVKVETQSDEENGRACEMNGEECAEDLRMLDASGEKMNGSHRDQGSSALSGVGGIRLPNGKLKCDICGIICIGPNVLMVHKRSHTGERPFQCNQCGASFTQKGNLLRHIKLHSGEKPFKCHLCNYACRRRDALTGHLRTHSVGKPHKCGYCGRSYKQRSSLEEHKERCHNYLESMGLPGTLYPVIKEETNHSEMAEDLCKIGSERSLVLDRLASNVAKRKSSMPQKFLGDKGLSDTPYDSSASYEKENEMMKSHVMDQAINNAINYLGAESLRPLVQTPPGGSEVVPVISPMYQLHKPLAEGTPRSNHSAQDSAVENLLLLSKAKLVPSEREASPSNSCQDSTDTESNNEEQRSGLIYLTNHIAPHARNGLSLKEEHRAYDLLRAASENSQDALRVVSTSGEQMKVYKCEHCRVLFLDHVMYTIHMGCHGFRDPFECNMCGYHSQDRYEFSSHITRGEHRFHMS
T6 sequence (Q96SW2 whole entry): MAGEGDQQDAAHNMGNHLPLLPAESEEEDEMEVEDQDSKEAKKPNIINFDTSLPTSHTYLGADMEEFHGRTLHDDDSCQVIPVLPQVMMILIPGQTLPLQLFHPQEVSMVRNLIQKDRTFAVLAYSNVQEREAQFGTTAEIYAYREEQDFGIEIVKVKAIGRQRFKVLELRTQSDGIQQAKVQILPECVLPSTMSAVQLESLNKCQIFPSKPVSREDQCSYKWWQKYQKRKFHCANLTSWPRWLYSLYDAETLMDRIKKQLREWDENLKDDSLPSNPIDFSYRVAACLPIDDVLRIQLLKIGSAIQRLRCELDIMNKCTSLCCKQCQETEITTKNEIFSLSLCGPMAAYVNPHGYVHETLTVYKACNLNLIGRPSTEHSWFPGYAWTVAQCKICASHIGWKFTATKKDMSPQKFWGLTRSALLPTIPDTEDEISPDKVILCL
T6 sequence (Q16531 whole entry partner): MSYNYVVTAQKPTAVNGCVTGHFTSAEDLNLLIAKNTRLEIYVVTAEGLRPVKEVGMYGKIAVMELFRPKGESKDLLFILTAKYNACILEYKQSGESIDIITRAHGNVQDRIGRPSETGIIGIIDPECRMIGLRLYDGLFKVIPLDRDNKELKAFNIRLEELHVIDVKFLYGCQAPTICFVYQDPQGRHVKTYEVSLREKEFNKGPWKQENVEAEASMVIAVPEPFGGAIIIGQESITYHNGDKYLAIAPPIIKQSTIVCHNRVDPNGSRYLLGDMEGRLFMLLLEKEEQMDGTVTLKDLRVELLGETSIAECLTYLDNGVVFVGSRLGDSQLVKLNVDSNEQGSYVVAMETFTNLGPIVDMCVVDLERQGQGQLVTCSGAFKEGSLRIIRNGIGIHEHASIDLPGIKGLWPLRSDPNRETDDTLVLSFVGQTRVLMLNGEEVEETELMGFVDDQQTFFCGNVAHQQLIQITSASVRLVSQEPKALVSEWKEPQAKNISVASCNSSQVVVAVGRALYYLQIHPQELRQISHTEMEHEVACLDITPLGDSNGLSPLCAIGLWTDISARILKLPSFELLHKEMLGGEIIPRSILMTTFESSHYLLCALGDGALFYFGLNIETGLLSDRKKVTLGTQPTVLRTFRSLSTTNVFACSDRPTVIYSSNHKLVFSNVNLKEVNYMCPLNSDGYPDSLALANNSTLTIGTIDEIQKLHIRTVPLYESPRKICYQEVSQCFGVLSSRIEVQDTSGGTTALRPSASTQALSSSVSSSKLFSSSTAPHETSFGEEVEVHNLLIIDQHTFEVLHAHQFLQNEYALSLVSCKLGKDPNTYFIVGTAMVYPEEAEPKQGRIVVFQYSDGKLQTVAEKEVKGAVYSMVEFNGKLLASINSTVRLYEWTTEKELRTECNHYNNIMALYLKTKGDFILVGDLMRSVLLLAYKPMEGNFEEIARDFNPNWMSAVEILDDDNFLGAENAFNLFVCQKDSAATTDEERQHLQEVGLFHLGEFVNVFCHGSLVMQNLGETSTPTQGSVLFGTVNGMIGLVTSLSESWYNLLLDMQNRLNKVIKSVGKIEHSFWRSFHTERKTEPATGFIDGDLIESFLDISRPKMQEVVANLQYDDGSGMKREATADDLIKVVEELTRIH

T5 sequence (P15170 whole entry): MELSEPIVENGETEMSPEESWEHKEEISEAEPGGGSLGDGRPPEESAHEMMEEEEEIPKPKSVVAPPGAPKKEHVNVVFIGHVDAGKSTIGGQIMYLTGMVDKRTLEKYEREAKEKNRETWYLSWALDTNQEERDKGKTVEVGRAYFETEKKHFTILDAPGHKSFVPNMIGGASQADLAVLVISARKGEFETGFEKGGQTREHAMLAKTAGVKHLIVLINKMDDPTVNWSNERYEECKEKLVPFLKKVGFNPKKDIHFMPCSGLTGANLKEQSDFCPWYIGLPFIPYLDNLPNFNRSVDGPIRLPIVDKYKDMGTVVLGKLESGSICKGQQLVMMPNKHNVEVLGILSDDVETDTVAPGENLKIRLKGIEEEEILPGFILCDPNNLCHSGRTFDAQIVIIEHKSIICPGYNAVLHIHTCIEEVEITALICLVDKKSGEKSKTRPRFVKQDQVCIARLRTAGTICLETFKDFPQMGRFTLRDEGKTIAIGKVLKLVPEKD
T5 sequence (Q96SW2 whole entry): as the sequence (Q96SW2 whole entry) above
T5 sequence (Q16531 whole entry partner): as the sequence (Q16531 whole entry partner) above
T3 sequence (P48729 whole entry): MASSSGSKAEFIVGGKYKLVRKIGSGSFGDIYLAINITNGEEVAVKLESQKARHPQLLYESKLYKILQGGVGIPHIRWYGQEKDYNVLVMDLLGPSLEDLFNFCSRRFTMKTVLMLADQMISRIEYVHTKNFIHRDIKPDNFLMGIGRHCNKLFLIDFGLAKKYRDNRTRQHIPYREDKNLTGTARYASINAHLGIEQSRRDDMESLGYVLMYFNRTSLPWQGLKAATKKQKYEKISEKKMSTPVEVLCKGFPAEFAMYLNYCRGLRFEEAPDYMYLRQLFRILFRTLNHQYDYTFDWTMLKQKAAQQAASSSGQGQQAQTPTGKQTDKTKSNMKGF
T3 sequence (Q96SW2 whole entry): as the sequence (Q96SW2 whole entry) above
T3 sequence (Q16531 whole entry partner): as the sequence (Q16531 whole entry partner) above
T4 sequence (Q9UKT9 whole entry): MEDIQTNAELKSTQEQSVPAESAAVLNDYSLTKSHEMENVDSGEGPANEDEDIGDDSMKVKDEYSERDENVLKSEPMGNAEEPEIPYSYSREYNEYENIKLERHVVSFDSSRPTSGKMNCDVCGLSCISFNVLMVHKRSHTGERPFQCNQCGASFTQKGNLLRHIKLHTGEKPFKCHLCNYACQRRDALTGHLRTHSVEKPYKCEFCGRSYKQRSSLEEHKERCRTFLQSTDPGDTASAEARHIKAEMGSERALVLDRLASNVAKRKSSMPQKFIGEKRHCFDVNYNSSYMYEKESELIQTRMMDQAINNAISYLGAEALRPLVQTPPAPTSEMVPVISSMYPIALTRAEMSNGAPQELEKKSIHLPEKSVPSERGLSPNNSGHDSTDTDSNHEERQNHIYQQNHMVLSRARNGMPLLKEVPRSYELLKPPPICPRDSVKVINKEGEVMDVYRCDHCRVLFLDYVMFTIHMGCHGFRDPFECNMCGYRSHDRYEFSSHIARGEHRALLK
T4 sequence (Q96SW2 whole entry): as the sequence (Q96SW2 whole entry) above
T4 sequence (Q16531 whole entry partner): as the sequence (Q16531 whole entry partner) above
T1 sequence (Q9UKS7 whole entry): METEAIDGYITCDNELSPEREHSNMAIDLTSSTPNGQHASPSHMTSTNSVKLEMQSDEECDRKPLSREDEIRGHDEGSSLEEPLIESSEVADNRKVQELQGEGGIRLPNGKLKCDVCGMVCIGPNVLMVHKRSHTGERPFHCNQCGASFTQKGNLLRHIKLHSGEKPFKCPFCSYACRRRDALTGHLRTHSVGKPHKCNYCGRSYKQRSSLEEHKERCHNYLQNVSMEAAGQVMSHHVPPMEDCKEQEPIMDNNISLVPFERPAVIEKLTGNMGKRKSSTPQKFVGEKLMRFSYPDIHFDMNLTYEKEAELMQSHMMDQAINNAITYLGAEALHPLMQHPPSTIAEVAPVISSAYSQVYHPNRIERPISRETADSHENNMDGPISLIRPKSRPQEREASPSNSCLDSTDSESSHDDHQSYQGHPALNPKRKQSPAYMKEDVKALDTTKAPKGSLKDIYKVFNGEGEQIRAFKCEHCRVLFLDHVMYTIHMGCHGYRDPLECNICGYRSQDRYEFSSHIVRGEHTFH
T1 sequence (Q96SW2 whole entry): as the sequence (Q96SW2 whole entry) above
T1 sequence (Q16531 whole entry partner): as the sequence (Q16531 whole entry partner) above

Row | SMILES | inhibition at 0.01 µM ([1]; read-out: Inhibition Rate at 10 nM (%)) [%] | inhibition at 0.5 µM ([1]; read-out: Inhibition Rate at 500 nM (%)) [%] | inhibition at 0.01 µM [2] [%] | inhibition at 0.5 µM [2] [%] | substrate protein remaining % IKZF2 [3] | substrate protein remaining % WEE1 [4] | substrate protein remaining % CK1α [5] | substrate protein remaining % IKZF3 [6] | inhibition at 0.01 µM [7] [%] | inhibition at 0.5 µM [7] [%] | substrate protein remaining % GSPT1 [8] | substrate protein remaining % IKZF1 [9] | IKZF2 substrate protein remaining % [3] | WEE1 substrate protein remaining % [4] | CK1α substrate protein remaining % [5] | IKZF3 substrate protein remaining % [6] | IC50 [2] [nM] | GSPT1 substrate protein remaining % [8] | IKZF1 substrate protein remaining % [9]
1 | Cc1nc(C2=CCN(Cc3ccc4c(c3)CN(N3CCC(=O)NC3=O)C4=O)CC2)c2ccsc2n1 [GT-08175, 1-(5-((4-(2-methylthieno[2,3-d]pyrimidin-4-yl)-3,6-dihydropyridin-1(2H)-yl)methyl)-1-oxoisoindolin-2-yl)dihydropyrimidine-2,4(1H,3H)-dione] | 18 to 25 | 80 to 100 | -10 to -5 | 80 to 100 | – | – | – | – | – | – | – | – | – | – | – | – | – | – | –
2 | Cc1nc(C2=CCN(Cc3ccc4c(c3)C(=O)N(N3CCC(=O)NC3=O)C4=O)CC2)c2c(-c3ccccc3)csc2n1 [GT-08484, 2-(2,4-dioxotetrahydropyrimidin-1(2H)-yl)-5-((4-(2-methyl-5-phenylthieno[2,3-d]pyrimidin-4-yl)-3,6-dihydropyridin-1(2H)-yl)methyl)isoindoline-1,3-dione] | – | – | 42 to 60 | 20 to 30 | A (0% ≤ substrate protein remaining % ≤ 80%) | A (0% ≤ substrate protein remaining % ≤ 80%) | A (0% ≤ substrate protein remaining % ≤ 80%) | A (0% ≤ substrate protein remaining % ≤ 80%) | 20 to 40 | 15 to 20 | A (0% ≤ substrate protein remaining % ≤ 80%) | A (0% ≤ substrate protein remaining % ≤ 80%) | – | – | – | – | – | – | –
3 | O=C1CCN(N2Cc3cc(CN4CCN(c5nc(N6CCOCC6)nc6ccsc56)CC4)ccc3C2=O)C(=O)N1 [GT-08446, 1-(5-((4-(2-morpholinothieno[3,2-d]pyrimidin-4-yl)piperazin-1-yl)methyl)-1-oxoisoindolin-2-yl)dihydropyrimidine-2,4(1H,3H)-dione] | – | – | 42 to 60 | 30 to 42 | B (80%< substrate protein remaining %≤ 100%) | B (80%< substrate protein remaining %≤ 100%) | B (80%< substrate protein remaining %≤ 100%) | A (0% ≤ substrate protein remaining % ≤ 80%) | 20 to 40 | 20 to 40 | A (0% ≤ substrate protein remaining % ≤ 80%) | B (80%< substrate protein remaining %≤ 100%) | – | – | – | – | – | – | –
4 | O=C1CCN(N2Cc3cc(CN4CC=C(c5ncc6ccsc6n5)CC4)ccc3C2=O)C(=O)N1 [GT-08438, 1-(1-oxo-5-((4-(thieno[2,3-d]pyrimidin-2-yl)-3,6-dihydropyridin-1(2H)-yl)methyl)isoindolin-2-yl)dihydropyrimidine-2,4(1H,3H)-dione] | – | – | 20 to 30 | 80 to 100 | B (80%< substrate protein remaining %≤ 100%) | A (0% ≤ substrate protein remaining % ≤ 80%) | B (80%< substrate protein remaining %≤ 100%) | A (0% ≤ substrate protein remaining % ≤ 80%) | 20 to 40 | 10 to 15 | A (0% ≤ substrate protein remaining % ≤ 80%) | A (0% ≤ substrate protein remaining % ≤ 80%) | – | – | – | – | – | – | –
5 | O=C1CCN(N2C(=O)c3ccc(CN4CC=C(c5ncnc6sc7c(c56)CCCC7)CC4)cc3C2=O)C(=O)N1 [GT-08433, 2-(2,4-dioxotetrahydropyrimidin-1(2H)-yl)-5-((4-(5,6,7,8-tetrahydrobenzo[4,5]thieno[2,3-d]pyrimidin-4-yl)-3,6-dihydropyridin-1(2H)-yl)methyl)isoindoline-1,3-dione] | – | – | 20 to 30 | 30 to 42 | B (80%< substrate protein remaining %≤ 100%) | B (80%< substrate protein remaining %≤ 100%) | A (0% ≤ substrate protein remaining % ≤ 80%) | A (0% ≤ substrate protein remaining % ≤ 80%) | 20 to 40 | 15 to 20 | A (0% ≤ substrate protein remaining % ≤ 80%) | B (80%< substrate protein remaining %≤ 100%) | – | – | – | – | – | – | –
6 | O=C1CCN(N2Cc3cc(CN4CC=C(c5ccoc5)CC4)ccc3C2=O)C(=O)N1 [GT-04875, 1-(5-((4-(furan-3-yl)-3,6-dihydropyridin-1(2H)-yl)methyl)-1-oxoisoindolin-2-yl)dihydropyrimidine-2,4(1H,3H)-dione] | – | – | – | – | – | – | – | – | – | – | – | – | B ("B" is defined as 80%< substrate protein remaining %≤ 100%) | A ("A" is defined as 0% ≤ substrate protein remaining % ≤ 80%) | B ("B" is defined as 80%< substrate protein remaining %≤ 100%) | B ("B" is defined as 80%< substrate protein remaining %≤ 100%) | 300 to 500 | A ("A" is defined as 0% ≤ substrate protein remaining % ≤ 80%) | B ("B" is defined as 80%< substrate protein remaining %≤ 100%)
7 | O=C1CCN(N2Cc3cc(CN4CCC(c5ccsc5)CC4)ccc3C2=O)C(=O)N1 [GT-07371, 1-(1-oxo-5-((4-(thiophen-3-yl)piperidin-1-yl)methyl)isoindolin-2-yl)dihydropyrimidine-2,4(1H,3H)-dione] | – | – | – | – | B (80%< substrate protein remaining %≤ 100%) | B (80%< substrate protein remaining %≤ 100%) | B (80%< substrate protein remaining %≤ 100%) | A (0% ≤ substrate protein remaining % ≤ 80%) | – | – | A (0% ≤ substrate protein remaining % ≤ 80%) | B (80%< substrate protein remaining %≤ 100%) | – | – | – | – | 500 to 1000 | – | –
8 | O=C1CCN(N2Cc3cc(CN4C[C@@H]5C[C@H]4CN5c4cccc(Cl)c4Cl)ccc3C2=O)C(=O)N1 [GT-05163, 1-(5-(((1S,4S)-5-(2,3-dichlorophenyl)-2,5-diazabicyclo[2.2.1]heptan-2-yl)methyl)-1-oxoisoindolin-2-yl)dihydropyrimidine-2,4(1H,3H)-dione] | – | – | – | – | – | – | – | – | – | – | – | – | A ("A" is defined as 0% ≤ substrate protein remaining % ≤ 80%) | B ("B" is defined as 80%< substrate protein remaining %≤ 100%) | B ("B" is defined as 80%< substrate protein remaining %≤ 100%) | A ("A" is defined as 0% ≤ substrate protein remaining % ≤ 80%) | 500 to 1000 | A ("A" is defined as 0% ≤ substrate protein remaining % ≤ 80%) | A ("A" is defined as 0% ≤ substrate protein remaining % ≤ 80%)
9 | O=C1CCN(N2Cc3cc(CN4CC=C(c5nccc(Cl)c5Cl)CC4)ccc3C2=O)C(=O)N1 [GT-06392, 1-(5-((3,4-dichloro-3',6'-dihydro-[2,4'-bipyridin]-1'(2'H)-yl)methyl)-1-oxoisoindolin-2-yl)dihydropyrimidine-2,4(1H,3H)-dione] | – | – | – | – | – | – | – | – | – | – | – | – | A ("A" is defined as 0% ≤ substrate protein remaining % ≤ 80%) | A ("A" is defined as 0% ≤ substrate protein remaining % ≤ 80%) | A ("A" is defined as 0% ≤ substrate protein remaining % ≤ 80%) | A ("A" is defined as 0% ≤ substrate protein remaining % ≤ 80%) | 300 to 500 | A ("A" is defined as 0% ≤ substrate protein remaining % ≤ 80%) | B ("B" is defined as 80%< substrate protein remaining %≤ 100%)
10 | CC1(C)CCC(CN2CCN(Cc3ccc4c(c3)CN(N3CCC(=O)NC3=O)C4=O)CC2)=C(c2ccc(Cl)cc2)C1 [GT-04944, 1-(5-((4-((4'-chloro-5,5-dimethyl-3,4,5,6-tetrahydro-[1,1'-biphenyl]-2-yl)methyl)piperazin-1-yl)methyl)-1-oxoisoindolin-2-yl)dihydropyrimidine-2,4(1H,3H)-dione] | – | – | – | – | – | – | – | – | – | – | – | – | B ("B" is defined as 80%< substrate protein remaining %≤ 100%) | B ("B" is defined as 80%< substrate protein remaining %≤ 100%) | B ("B" is defined as 80%< substrate protein remaining %≤ 100%) | B ("B" is defined as 80%< substrate protein remaining %≤ 100%) | 500 to 1000 | A ("A" is defined as 0% ≤ substrate protein remaining % ≤ 80%) | B ("B" is defined as 80%< substrate protein remaining %≤ 100%)
